According to paper PMC3210331 (Journal of structural biology, 2011):

Columns and labels:
[1] = ref Anderson et al., 2011; cited from earlier work
Chk2 = details: ref Jobson et al., cited from earlier work
Chk1 = target: T1, Chk1 (Homo sapiens, UniProt O14757); test: IMAP fluorescence polarization kinase inhibition assay, Chk1; type: biochemical; details: for IC50: read-out: IC50 Chk1, IMAP assay, 60 minutes at room temperature
T1 sequence (O14757 1-476): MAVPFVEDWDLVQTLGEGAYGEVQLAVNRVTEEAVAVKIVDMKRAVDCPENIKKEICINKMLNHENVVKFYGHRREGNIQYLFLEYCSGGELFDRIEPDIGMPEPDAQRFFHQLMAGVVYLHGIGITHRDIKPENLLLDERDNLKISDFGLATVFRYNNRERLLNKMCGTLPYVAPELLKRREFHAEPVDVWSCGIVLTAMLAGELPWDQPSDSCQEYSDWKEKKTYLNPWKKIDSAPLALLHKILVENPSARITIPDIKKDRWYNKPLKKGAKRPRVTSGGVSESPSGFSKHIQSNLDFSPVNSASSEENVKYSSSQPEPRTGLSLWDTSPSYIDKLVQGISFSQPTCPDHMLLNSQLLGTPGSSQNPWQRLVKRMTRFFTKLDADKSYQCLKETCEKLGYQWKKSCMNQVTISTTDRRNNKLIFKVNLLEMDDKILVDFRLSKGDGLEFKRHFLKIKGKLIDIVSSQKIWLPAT

recombinant human Chk2 = recombinant human Chk2 (Homo sapiens, UniProt O96017); test: IMAP fluorescence polarization kinase inhibition assay, Chk2; type: biochemical; details: read-out: IC50 Chk2 Mean ±SD (n=3–4), 60 minutes at room temperature
Sequence of recombinant human Chk2 (O96017 whole entry): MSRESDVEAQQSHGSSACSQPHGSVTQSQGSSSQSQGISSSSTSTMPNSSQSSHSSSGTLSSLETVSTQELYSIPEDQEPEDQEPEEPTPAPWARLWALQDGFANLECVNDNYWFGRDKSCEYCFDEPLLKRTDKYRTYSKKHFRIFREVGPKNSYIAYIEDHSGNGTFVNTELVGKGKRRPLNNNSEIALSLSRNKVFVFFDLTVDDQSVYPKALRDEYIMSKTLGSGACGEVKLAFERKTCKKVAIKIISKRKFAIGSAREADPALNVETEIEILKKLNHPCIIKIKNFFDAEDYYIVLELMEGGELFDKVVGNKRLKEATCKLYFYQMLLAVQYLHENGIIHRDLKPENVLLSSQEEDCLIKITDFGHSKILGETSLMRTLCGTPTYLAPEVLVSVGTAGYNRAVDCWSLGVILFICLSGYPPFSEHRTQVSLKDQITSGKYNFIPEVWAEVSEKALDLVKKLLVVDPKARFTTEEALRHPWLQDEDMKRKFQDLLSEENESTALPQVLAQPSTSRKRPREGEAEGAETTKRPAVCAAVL

RSK2 = RSK2 (Homo sapiens, UniProt P51812); test: IMAP fluorescence polarization kinase inhibition assay, RSK2; type: biochemical; details: for IC50: read-out: IC50 RSK2, IMAP assay, 60 minutes at room temperature
Sequence of RSK2 (P51812 68-327 limits assumed): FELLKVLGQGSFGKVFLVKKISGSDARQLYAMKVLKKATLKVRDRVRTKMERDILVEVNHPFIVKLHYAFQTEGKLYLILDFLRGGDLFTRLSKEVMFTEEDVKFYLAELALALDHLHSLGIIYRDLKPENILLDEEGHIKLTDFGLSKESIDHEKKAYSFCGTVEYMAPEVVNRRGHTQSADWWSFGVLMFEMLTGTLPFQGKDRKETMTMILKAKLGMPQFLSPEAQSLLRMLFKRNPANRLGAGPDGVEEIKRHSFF

[2] = positive control on each screening plate

In the case of `COc1cc2nc(-c3cc(F)ccc3O)nc(N[C@@H]3CNC[C@H]3C(C)(C)O)c2cc1OC` [CCT241533], the “Potentiation of cytotoxicity of PARP inhibitors” value [1] is listed as “potentiate the cytotoxicity of PARP inhibitors”.

In the case of `CC(=NNC(=N)N)c1ccc(NC(=O)Nc2ccc(C(C)=NNC(=N)N)cc2)cc1` [NSC 109555, 4,4'-Diacetyldiphenylurea-bis(guanylhydrazone)], the “Activity in cellular assays” value (Chk2; 2007) is listed as “inactive”.

In the case of `OCC=CCO` [PV976], the IC50 (Chk1) is reported as > 100 µM, the IC50 (recombinant human Chk2) is reported as 69.6 ± 40.2 nM and the IC50 (RSK2) is reported as > 100 µM.

In the case of `CC(=NNC(=N)N)c1ccc(NC(=O)c2cc3cccc([N+](=O)[O-])c3[nH]2)cc1` [PV1019, 7-nitro-1H-indole-2-carboxylic acid {4-[1-(guanidinohydrazone)-ethyl]-phenyl}-amide], the “Activity in cells against Chk2” value (Chk2; 2009) is listed as “active”.

In the case of `C/C(=N\NC1=NCCN1)c1ccc(NC(=O)c2cc3cccc([N+](=O)[O-])c3[nH]2)cc1` [PV1115], the IC50 (Chk1) is reported as 66 µM and the IC50 (RSK2) is reported as > 100 µM.

For `N/C(=N/N=C/c1cccnc1)N[N+](=O)[O-]` [PV1531], the IC50 (Chk1) was 86 µM, the IC50 (recombinant human Chk2) was 0.03 ± 0.03 nM and the IC50 (RSK2) was > 100 µM.

For `CN[C@@H]1C[C@H]2O[C@@](C)([C@@H]1OC)n1c3ccccc3c3c4c(c5c6ccccc6n2c5c31)C(=O)NC4` [staurosporine, reference compound], the “Inhibition of Chk1 (positive control)” value (Chk1; [2]) was “inhibits” and the “Inhibition of RSK2 (positive control)” value (RSK2; [2]) was “inhibits”.
